According to patent US20230094076A1, “COMBINATION THERAPY” (GlaxoSmithKline Intellectual Property Development Limited, priority 2016, published 2023):

Tested on: AML cell lines
Assay: Preliminary RNA-seq studies
Format: cell-based
Conditions: chemokines, cytokines, interferons, interleukins
Text: PRMT1 has been implicated in immune regulation through modulation of the TLR receptor signaling pathway, whereby PRMT1 knock-down results in increased expression of pro-inflammatory molecules (Tikhanovich, I. et al. Dynamic Arginine Methylation of Tumor Necrosis Factor (TNF) Receptor-associated Factor 6 Regulates Toll-like Receptor Signaling. J Biol Chem 290, 22236-22249, doi:10.1074.jbc.M115.653543 (2015)).

## CNCCN(C)Cc1c[nH]nc1[C@H]1CC[C@@]2(CC1)CC(C)(C)CO2 [Compound D]
  expression of immune response gene families: altered expression
